Reference: PubChem BioAssay (NCI)
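The compound was tested at five concentrations on cells cultured in 96-well plates, with a 48-hour exposure period. Here, GI50 denotes the concentration required for 50% inhibition of growth. TGI marks complete inhibition of growth.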

Experiments:
Assay in all cases: NCI-60 cell line screen, 48 h
PC-3 prostate = test system: PC-3 prostate
MCF7 breast = test system: MCF7 breast
NCI/ADR-RES ovarian = test system: NCI/ADR-RES ovarian
MDA-MB-435 = test system: MDA-MB-435
LXFL 529 NSCLC = test system: LXFL 529 NSCLC
DLD-1 colon = test system: DLD-1 colon
DMS 273 small cell lung = test system: DMS 273 small cell lung
HOP-18 NSCLC = test system: HOP-18 NSCLC
M19-MEL melanoma = test system: M19-MEL melanoma
XF 498 CNS = test system: XF 498 CNS
SNB-78 CNS = test system: SNB-78 CNS

Row | SMILES | TGI (PC-3 prostate) | TGI (MCF7 breast) | TGI (NCI/ADR-RES ovarian) | TGI (MDA-MB-435) | TGI (LXFL 529 NSCLC) | TGI (DLD-1 colon) | TGI (DMS 273 small cell lung) | TGI (HOP-18 NSCLC) | TGI (M19-MEL melanoma) | TGI (XF 498 CNS) | GI50 (PC-3 prostate) | GI50 (MCF7 breast) | GI50 (NCI/ADR-RES ovarian) | GI50 (MDA-MB-435) | TGI (SNB-78 CNS)
1 | CSCCCN(CCCSC)CCCSC | > 100 µM | > 100 µM | > 100 µM | > 100 µM |  |  |  |  |  |  |  |  |  |  | 
2 | CCOC(=O)c1ncn2c1[nH]c(=S)c1ccccc12 |  |  |  |  | > 100 µM | > 100 µM | > 100 µM | > 100 µM | > 100 µM |  |  |  |  |  | 
3 | COc1ccc(-c2cc(=O)c3ccc(O)cc3o2)c(OC)c1OC |  |  |  |  | > 100 µM | > 100 µM |  |  | > 100 µM | > 100 µM |  |  |  |  | 
4 | Cc1ccc(-c2nnc(-c3ccc4ccccc4c3)o2)cc1 | > 100 µM | > 100 µM | > 79.2 µM | > 100 µM |  |  |  |  |  |  |  |  |  |  | 
5 | Nc1cc2nc3ccccc3sc-2cc1=O | 21.8 µM | 9.63 µM | 16.7 µM | 3.26 µM |  |  |  |  |  |  | 1.51 µM | 2.38 µM | 2.96 µM | 1.76 µM | 
6 | O=C(CN1CCN(c2cc3c(cc2F)c(=O)c(C(=O)N/N=C/c2ccccc2O)cn3C2CC2)CC1)N/N=C\c1ccccc1O | > 100 µM | > 100 µM | > 100 µM | > 100 µM |  |  |  |  |  |  | 0.531 µM | 0.398 µM | 0.91 µM | 0.99 µM | 
7 | CN(C)c1ccc(-c2cc(-c3ccc(Nc4nc(Nc5ccc(Cl)cc5)nc(Nc5ccc(Cl)cc5)n4)cc3)no2)cc1 |  | 10.7 µM | 88.6 µM | 32.3 µM |  |  |  |  |  |  |  | 2.46 µM | 5.38 µM | 3.33 µM | 
8 | Clc1cccc(Cc2cn3cc(-c4ccccc4)nc3s2)c1Cl | > 100 µM | > 100 µM | > 100 µM | > 100 µM |  |  |  |  |  |  | 53.7 µM | 11.5 µM | 76.4 µM | 3.59 µM | 
9 | Cc1cc(=O)[nH]c2cc3oc4ccccc4c3cc12 | > 100 µM | > 100 µM | > 100 µM | > 100 µM |  |  |  |  |  |  |  |  |  |  | 
10 | O=C(CCl)N1c2ccccc2Oc2ccc3ccccc3c21 | 3.62 µM |  | > 24 µM | 1.88 µM |  |  |  |  |  |  | 1.72 µM |  | 2.36 µM | 0.577 µM | 
11 | O=[N+]([O-])c1cnc(Sc2ccncn2)s1 | 17 µM | 3.45 µM | 38.3 µM | 8.76 µM |  |  |  |  |  |  | 2.73 µM | 1.65 µM | 11.3 µM | 2.95 µM | 
12 | COc1ccc(-n2/c(=N/C(=S)N(C)C)ss/c2=N\C(=S)N(C)C)cc1 |  |  |  |  |  |  | > 100 µM |  | > 100 µM |  |  |  |  |  | > 100 µM
13 | CC(=O)C(CN(C(C)C)C(C)C)C(c1ccccc1)c1c(O)c2ccccc2oc1=O (stereo not given) |  |  |  |  | > 100 µM | > 100 µM | > 100 µM | > 100 µM | > 100 µM |  |  |  |  |  | > 100 µM
14 | CCCCCCCC(=O)SCC/C=C/[C@@H]1CC(=O)NCc2cccc(n2)C2=N[C@@](C)(CS2)C(=O)N[C@@H](C(C)C)C(=O)N1 | > 33.3 µM | > 33.3 µM | > 33.3 µM | > 33.3 µM |  |  |  |  |  |  | 0.657 µM | 0.623 µM | 31.7 µM | 0.739 µM | 
15 | CCOC(=O)C1=C(C)CC2C(=O)OC(=O)C2C1(C)C (stereo not given) |  |  |  |  | > 100 µM | > 100 µM |  | > 100 µM | > 100 µM |  |  |  |  |  | 
16 | O[C@H]1[C@H]2c3cc4c(cc3CN3CCC(=C[C@@H]1O)[C@H]23)OCO4 | 5.34 µM | 1.71 µM | 10.7 µM | 7.87 µM |  |  |  |  |  |  |  |  |  |  | 
